The values below come from patent US12448363B2, “Kinase inhibitors” (Vidya Therapeutics, Inc., priority 2020, dated 2025).

The structures appear in SMILES notation.

In assay [1] the test system is BTK Activity in RAMOS B Cells. The assay can be described thus: Assay to determine BTK activity in RAMOS B cells (anti-IgM, FLIPR Calcium 6). The class given is cell-based. As to conditions: EC80 anti-IgM, FLIPR calcium read. The method, then:
On the day before assay, Ramos B cells were plated in plating medium (RPMI1640 medium containing 1% FBS and 1× pencillin-streptomycin). On the day of the assay, 2× dye solution was prepared following the manual of the FLIRP Calcium 6 Assay Kit: Dilute the dye with assay buffer (20 mM HEPES in 1×HBSS, pH7.4); Add probenecid to the final concentration of 5 mM; vortex vigorously for 1-2 minutes. Cells were collected by centrifuging, and the pellet was resuspended in plating medium. After counting, cells were resuspended at a density of 3×10^6/ml in plating medium. Equal volume of 2× dye solution was added to the cell suspension. Cells were then plated at 20 μl/well into a 384-well poly-D-lysine coated plate. Plate was centrifuged at 1000 rpm for 3 minutes and then incubated at 37° C. for 2 hours followed by an additional 15-minute incubation at 25° C. Compounds were prepared at 3× concentration in dilution buffer (20 mM HEPES and 0.1% BSA in 1×HBSS, pH 7.4). Serially diluted compound was transferred from source plate to a 384-well compound plate by using an Echo 550 (Labcyte). 20 μl/well compound dilution buffer was added to the compound plate and mixed on plate shaker for 2 mins. 4×EC80 of Anti-IgM (Jackson ImmunoResearch) was prepared in dilution buffer and 20 μl/well was added to a new 384-well compound plate. After 60 mins of incubation at 25° C. in the dark; cell plate, compound plate containing 4×EC80 of anti-IgM and FLIPR tips were placed into FLIPR (Molecular Devices). 10 ul/well of 4×EC80 anti-IgM was transferred to the cell plate by FLIPR. Plates were read for 160 sec with 1 sec interval.
With respect to Ramos activity, Table 9 lists activity as follows: • “A” denotes an IC50 of less than 10 nM; • “B” denotes an IC50 of from 10 nM to less than 100 nM; and • “C” denotes and IC50 of 100 nM or more.

Assay [2] deals with BTK (Homo sapiens, UniProt Q06187). The assay can be described thus: Assay to determine activity against BTK (EZ reader, FLPeptide). The settings on record: ATP (1 mM), BTK (2 nM), room temperature for 90 minutes. The class given is biochemical. On the set-up: purchased Carna. The method, then:
Solutions of compounds (test or control) in DMSO were prepared at the desired concentrations, and serially diluted to 11 concentrations by 3-fold dilution in 384pp-plate using TECAN EVO200. 20 nL of stock were transferred to 384 plate using Echo550. DMSO was used as vehicle control.
Two separate solutions were prepared—an ATP solution containing MgCl2 (10 mM), Brij-35 (0.01%), DTT (2 mM), BSA (0.05%), EGTA (1 mM), HEPE (pH7.5) (50 mM), FLPeptide (6 uM) and ATP (4 mM); and a BTK solution containing MgCl2 (10 mM), Brij-35 (0.01%), DTT (2 mM), BSA (0.05%), EGTA (1 mM), HEPE (pH7.5) (50 mM) and BTK (2.67 nM). […] (Note the final volume of each well was 20 uL containing MgCl2 (10 mM), Brij-35 (0.01%), DTT (2 mM), BSA (0.05%), EGTA (1 mM), HEPE (pH7.5) (50 mM), FLPeptide (1.5 uM), ATP (1 mM) and BTK (2 nM).
The plates were incubated at room temperature for 90 minutes and then stopping buffer added (75 uL, containing 0.5 M EDTA) to terminate the reaction. Samples from each well were analyzed using EZ reader. The % remaining activity was calculated using read conversion ratio (CR) according to the equation: […]
XLFit (equation 201) was used to calculate IC50s by floating both bottom and top.
With respect to BTK activity, Table 4 lists activity as follows: • “A” denotes an IC50 of less than 10 nM, • “B” denotes an IC50 of from 10 nM to less than 100 nM; and • “C” denotes and IC50 of 100 nM or more.

BTK, sequence (Q06187 whole entry): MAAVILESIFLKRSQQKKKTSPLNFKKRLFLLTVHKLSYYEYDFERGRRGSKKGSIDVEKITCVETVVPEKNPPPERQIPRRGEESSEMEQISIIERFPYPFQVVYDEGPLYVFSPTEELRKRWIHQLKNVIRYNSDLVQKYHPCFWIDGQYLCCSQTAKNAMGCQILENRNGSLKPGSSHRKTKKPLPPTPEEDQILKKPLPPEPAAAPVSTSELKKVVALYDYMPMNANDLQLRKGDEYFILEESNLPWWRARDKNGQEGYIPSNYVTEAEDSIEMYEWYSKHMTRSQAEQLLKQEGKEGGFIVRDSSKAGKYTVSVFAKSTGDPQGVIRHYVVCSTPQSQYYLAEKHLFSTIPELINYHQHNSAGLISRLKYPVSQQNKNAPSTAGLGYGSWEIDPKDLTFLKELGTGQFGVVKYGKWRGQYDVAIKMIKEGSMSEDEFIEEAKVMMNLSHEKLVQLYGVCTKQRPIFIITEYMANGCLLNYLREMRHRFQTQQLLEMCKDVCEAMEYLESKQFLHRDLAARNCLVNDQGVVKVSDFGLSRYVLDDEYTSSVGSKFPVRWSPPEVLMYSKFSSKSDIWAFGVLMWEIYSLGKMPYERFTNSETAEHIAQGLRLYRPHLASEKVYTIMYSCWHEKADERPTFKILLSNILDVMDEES

In the case of `C=CC(=O)N1CCc2c(cccc2-c2c(F)cc(C(N)=O)c3[nH]c(C)c(F)c23)C1` (atropisomer, axis not shown) [Compound 20e, (S)-4-(2-acryloyl-1,2,3,4-tetrahydroisoquinolin-5-yl)-3,5-difluoro-2-methyl-1H-indole-7-carboxamide], the 50% inhibitory concentration (IC50) in assay [1] and in assay [2] was less than 10 nM throughout.

Regarding `C=CC(=O)N1CCc2c(cccc2-c2c(F)cc(C(N)=O)c3[nH]c(C)c(F)c23)C1` (atropisomer, axis not shown) [Compound 20f, (R)-4-(2-acryloyl-1,2,3,4-tetrahydroisoquinolin-5-yl)-3,5-difluoro-2-methyl-1H-indole-7-carboxamide], the IC50 in assay [1] and in assay [2] was not below 100 nM throughout.

In the case of `C=CC(=O)N1CCc2c(cccc2-c2c(F)cc(C(N)=O)c3[nH]c(C)c(C#N)c23)C1` (atropisomer, axis not shown) [Compound 20h, (S)-4-(2-acryloyl-1,2,3,4-tetrahydroisoquinolin-5-yl)-3-cyano-5-fluoro-2-methyl-1H-indole-7-carboxamide], the concentration for half-maximal inhibition (IC50) in assay [1] and in assay [2] was not below 100 nM each time.

Regarding `C=CC(=O)N1CCc2c(cccc2-c2c(F)cc(C(N)=O)c3[nH]c(C)c(C#N)c23)C1` (atropisomer, axis not shown) [Compound 20i, (R)-4-(2-acryloyl-1,2,3,4-tetrahydroisoquinolin-5-yl)-3-cyano-5-fluoro-2-methyl-1H-indole-7-carboxamide], the IC50 in assay [1] was 10 to 100 nM; in assay [2] it was less than 10 nM.

With `C=CC(=O)N1CCc2c(cccc2-c2c(F)c(F)c(C(N)=O)c3[nH]c(C)c(Cl)c23)C1` (atropisomer, axis not shown) [Compound 21b, (R)-4-(2-acryloyl-1,2,3,4-tetrahydroisoquinolin-5-yl)-3-chloro-5,6-difluoro-2-methyl-1H-indole-7-carboxamide], the IC50 in assay [1] and in assay [2] was less than 10 nM throughout.

With `C=CC(=O)N1CCc2c(cccc2-c2c(F)c(F)c(C(N)=O)c3[nH]c(C)c(Cl)c23)C1` (atropisomer, axis not shown) [Compound 21c, (S)-4-(2-acryloyl-1,2,3,4-tetrahydroisoquinolin-5-yl)-3-chloro-5,6-difluoro-2-methyl-1H-indole-7-carboxamide], the half-inhibitory concentration (IC50) in assay [1] and in assay [2] was not below 100 nM each time.

For `C=CC(=O)N1C[C@H]2CCN(c3c(F)cc(C(N)=O)c4[nH]c(C)c(Cl)c34)C[C@@H]2C1` (racemic) [Compound 39, 4-(trans-2-acryloyloctahydro-5H-pyrrolo[3,4-c]pyridin-5-yl)-3-chloro-5-fluoro-2-methyl-1H-indole-7-carboxamide], the IC50 in assay [1] (Homo sapiens, Ramos) is not below 100 nM; in assay [2], not below 100 nM.

For the compound `C=CC(=O)N1CCc2c(cccc2-c2c(F)cc(C(N)=O)c3[nH]c(C)c(Cl)c23)C1` (single isomer, unassigned) [Compound 20c], the IC50 in assay [1] and in assay [2] was not below 100 nM in each case.

With `C=CC(=O)N1CCc2c(-c3c(F)cc(C(N)=O)c4[nH]c(C)c(Cl)c34)cccc2[C@H]1C` (single isomer, unassigned) [Compound 22b], the IC50 in assay [1] and in assay [2] was not below 100 nM each time.

Turning to `C=CC(=O)N1CCc2c(-c3c(F)cc(C(N)=O)c4[nH]c(C)c(Cl)c34)cccc2[C@@H]1C` (single isomer, unassigned) [Compound 22c], the concentration for half-maximal inhibition (IC50) in assay [1] (Homo sapiens, Ramos) was not below 100 nM; in assay [2], not below 100 nM.

For the compound `C=CC(=O)N1CCc2c(-c3c(F)cc(C(N)=O)c4[nH]c(C)c(Cl)c34)cccc2[C@@H]1C` (single isomer, unassigned) [Compound 22d], the IC50 in assay [1] and in assay [2] was not below 100 nM each time.

For the compound `C=CC(=O)N1CCc2c(-c3c(F)cc(C(N)=O)c4[nH]c(C)c(Cl)c34)cccc2[C@H]1C` (single isomer, unassigned) [Compound 22e], the concentration for half-maximal inhibition (IC50) in assay [1] and in assay [2] was less than 10 nM in each case.

Take `C=CC(=O)N1Cc2cccc(-c3c(F)cc(C(N)=O)c4[nH]c(C)c(Cl)c34)c2C2(CC2)C1` (single isomer, unassigned) [Compound 24c]: the half-inhibitory concentration (IC50) was not below 100 nM in assay [1] (Homo sapiens, Ramos) and 10 to 100 nM in assay [2].

With `C=CC(=O)N1Cc2cccc(-c3c(F)cc(C(N)=O)c4[nH]c(C)c(Cl)c34)c2C2(CC2)C1` (single isomer, unassigned) [Compound 24d], the half-maximal inhibitory concentration (IC50) in assay [1] and in assay [2] was not below 100 nM in each case.

Take `C=CC(=O)N1CCCc2c(cccc2-c2c(F)cc(C(N)=O)c3[nH]c(C)c(Cl)c23)C1` (single isomer, unassigned) [Compound 25c]: the IC50 in assay [1] (Homo sapiens, Ramos) was not below 100 nM; in assay [2] it was not below 100 nM.

With `C=CC(=O)N1CCCc2c(cccc2-c2c(F)cc(C(N)=O)c3[nH]c(C)c(Cl)c23)C1` (single isomer, unassigned) [Compound 25d], the half-inhibitory concentration (IC50) in assay [1] is not below 100 nM; in assay [2], 10 to 100 nM.

Turning to `C=CC(=O)N1CCC2CCN(c3c(F)cc(C(N)=O)c4[nH]c(C)c(Cl)c34)CC21` (single isomer, unassigned) [Compound 29b, 4-(1-acryloyloctahydro-6H-pyrrolo[2,3-c]pyridin-6-yl)-3-chloro-5-fluoro-2-methyl-1H-indole-7-carboxamide], the IC50 in assay [1] was 10 to 100 nM; in assay [2], less than 10 nM.

`C=CC(=O)N1CCCC(c2c(F)cc(C(N)=O)c3[nH]c(C)c(Cl)c23)C1` (stereo not drawn) [Compound 2, 4-(1-acryloylpiperidin-3-yl)-3-chloro-5-fluoro-2-methyl-1H-indole-7-carboxamide]: the half-maximal inhibitory concentration (IC50) was less than 10 nM in assay [1] (Homo sapiens, Ramos) and less than 10 nM in assay [2].

Regarding `C=CC(=O)N1CCCC(c2c(F)c(F)c(C(N)=O)c3[nH]c(C)c(Cl)c23)C1` (stereo not drawn) [Compound 3, 4-(1-acryloylpiperidin-3-yl)-3-chloro-5,6-difluoro-2-methyl-1H-indole-7-carboxamide], the IC50 was less than 10 nM in assay [1] (Homo sapiens, Ramos) and less than 10 nM in assay [2].

`C=CC(=O)N1CCC=C(c2c(F)c(F)c(C(N)=O)c3[nH]c(C)c(C#N)c23)C1` [Compound 5, 4-(1-acryloyl-1,2,5,6-tetrahydropyridin-3-yl)-3-cyano-5,6-difluoro-2-methyl-1H-indole-7-carboxamide]: the half-inhibitory concentration (IC50) is 10 to 100 nM in assay [1] (Homo sapiens, Ramos) and less than 10 nM in assay [2].

For `C#CC(=O)N1CCC[C@H](c2c(F)cc(C(N)=O)c3[nH]c(C)c(Cl)c23)C1` [Compound 7, (R)-3-chloro-5-fluoro-2-methyl-4-(1-propioloylpiperidin-3-yl)-1H-indole-7-carboxamide], the IC50 is less than 10 nM in assay [1] (Homo sapiens, Ramos) and less than 10 nM in assay [2].

With `C#CC(=O)N1CCC[C@@H](c2c(F)cc(C(N)=O)c3[nH]c(C)c(Cl)c23)C1` [Compound 8, (S)-3-chloro-5-fluoro-2-methyl-4-(1-propioloylpiperidin-3-yl)-1H-indole-7-carboxamide], the half-inhibitory concentration (IC50) is less than 10 nM in assay [1] (Homo sapiens, Ramos) and less than 10 nM in assay [2].

As for `C=CC(=O)N1CC(F)CC(c2c(F)cc(C(N)=O)c3[nH]c(C)c(Cl)c23)C1` (stereo not drawn) [Compound 9, 4-(1-acryloyl-5-fluoropiperidin-3-yl)-3-chloro-5-fluoro-2-methyl-1H-indole-7-carboxamide], the half-maximal inhibitory concentration (IC50) in assay [1] (Homo sapiens, Ramos) was less than 10 nM; in assay [2], less than 10 nM.

For `C=CC(=O)N1CCCC(c2c(F)c(F)c(C(N)=O)c3[nH]c(C)c(C#N)c23)C1` (stereo not drawn) [Compound 10, 4-(1-acryloylpiperidin-3-yl)-3-cyano-5,6-difluoro-2-methyl-1H-indole-7-carboxamide], the IC50 was in the range of 10 to 100 nM in assay [1] (Homo sapiens, Ramos) and 10 to 100 nM in assay [2].

In general, IC50 refers to the concentration at which inhibition is half-maximal.
